Like-named read-outs stand apart in the source and are kept apart here.
What was measured:
[1] = tested on: AML-SH-075; experiment: Cell viability in patient derived AML samples (CellTiterGlo, 72 h); assay type: cell-based, human
Procedure: (§1) Patient AML samples were gathered (under IRB 13-6180) from Scripps MD Anderson, La Jolla, CA Fresh blood samples were subjected to gradient density centrifugation with Ficoll-Paque™ PLUS (17-1440-02, GE Healthcare) and peripheral blood mononuclear cells purified as per manufacturer's protocol.
(§2) 75 nL of 1000× serially diluted IAP inhibitors were spotted in triplicate onto 384-well tissue culture treated plates (Greiner) using a Labcyte Echo acoustic dispensing device. Patient-derived AML cells were maintained in mTeSR1^+1× supplements (Stemcell Technologies) and penicillin/streptomycin/L-glutamine (Omega Scientific Inc.) and Fungizone (HyClone). 25 μL of cell dilution were plated into 384-well plate containing the drugs and incubated for 72 h. Cell viability was assessed by adding 25 μL CellTiterGlo (Promega Corp.) on a Synergy 2 plate reader with Gen5 software (Biotek). % viability was calculated by normalizing luminescence to vehicle only controls (DMSO) in Microsoft Excel and plotted using GraphPad Prism 8. The IC50 values were calculated using log(inhibitor) vs. response—Variable slope (four parameters) equation. (FIG. 6)

[2] = tested on: AML-SH-065; experiment: as above; assay type: cell-based, human
Procedure: as §1, §2

[3] = tested on: AML-SH-074; experiment: as above; assay type: cell-based, human
Procedure: as §1, §2

[4] = tested on: NB-4; experiment: Cell viability (CellTiter-Glo); assay type: cell-based, Human; settings: for IC50: Homo sapiens
[5] = tested on: PANC1; experiment: Cell viability (CellTiter-Glo), 6-day compound treatment; assay type: cell-based, Human
Procedure: (§3) The compound 18a was tested in 16 different cell lines. For 6-day compound treatment 1700 cells per well were plated in a 384-well plate (Corning #781098) and incubated overnight at 37° C./5% CO2. The following day, compounds in 10-fold dilutions were added to the plates and the plates were incubated for 6 days. Afterwards, 20 μL CellTiter-Glo reagent (Promega, #G7570) was added to each well outside of the incubator and the plates were read for luminescence on a Spark® multimode microplate reader (Tecan). Data was fit in GraphPad Prism 8 to a nonlinear regression curve to determine the IC50 of the compounds.

[6] = tested on: BT549; experiment: as above; assay type: cell-based, Human
Procedure: as §3

[7] = tested on: MiaPaCa2; experiment: as above; assay type: cell-based, Human
Procedure: as §3

[8] = tested on: SHP-77; experiment: as above; assay type: cell-based, Human
Procedure: as §3

[9] = Pharmacokinetic study in mice, snapshot PK; assay type: in vivo; settings: female, C57BL/6J, mouse, plasma, ip, one hour after i.p. injection of 10 mg/kg
Procedure: All animal procedures were approved by the Sanford Burnham Prebys Medical Discovery Institute Institutional Animal Care and Use Committee and were performed according to the NIH guidelines for the Care and Use of Laboratory Animals. Adult female C57BL/6J were purchased from JAX laboratories and housed with free access to food and water on a 12 h light/dark cycle. Compounds were formulated in 5% DMSO, 10% Tween-80, and 85% dH2O and injected intraperitoneally (i.p.) into mice at doses of 10 mg/kg. For snapshot PK analysis, blood samples were collected retro-orbitally one hour after injection and for the time course PK study, blood samples were collected at 15 min, 30 min, 1 h, 2 h, 4 h, 6 h, 24 h time points. For the blood samples plasma was separated by centrifugation. Plasma samples were extracted with acetonitrile:water 4:1 with 0.1% formic acid containing indometacin as an internal standard. Samples were centrifuged and supernatants were diluted with acetonitrile:water and analyzed via LC-MS/MS on a Shimadzu Nexera X2 HPLC coupled to an AB Sciex 6500 QTRAP.
Plasma exposure of selected compounds at 1 h compared.
Plasma levels of parent compound determined one hour after i.p. injection of 10 mg/kg

[10] = tested on: PBMC or resting CD4+ T cells; experiment: Cytokine release (LEGENDplex Human Inflammation Panel 13-plex); assay type: cell-based; settings: PBMC or resting CD4+ T cells of healthy human donors (FIG. 3)
Procedure: Compound 18a was also tested for its impact on T cell activation and cytokine release. Peripheral blood mononuclear cells (PBMC) were isolated by Ficoll density gradient centrifugation (Histopaque, Sigma Aldrich) from buffy coats of three healthy human donors (San Diego Blood Bank). Resting CD4^+ T cells were subsequently isolated by negative selection using magnetic beads (Miltenyi Biotec). Cells were treated with compound 18a, or 50 ng/ml Phorbol myristate acetate (PMA) and 1 μM lonomycin, or Dynabeads Human T-Activator CD3/CD28 (ThermoFisher Scientific) at a bead-to-cell ratio of 1:1, or left untreated. Expression of the early and late activation markers CD69 and CD25 on CD4+ T cells was assessed by flow cytometry using a Phycoerythrin-labeled anti-CD69 antibody (BioLegend; Cat #310906) and an Allophycocyanin-labeled anti-CD25 antibody (BioLegend; Cat #302610). Cytokine expression levels in cultures of PBMC or resting CD4+ T cells were analyzed using the LEGENDplex Human Inflammation Panel 13-plex (BioLegend).

[11] = tested on: SKOV-3; experiment: Cell viability (CellTiter-Glo), 48 hrs; assay type: cell-based; settings: Homo sapiens, SK-OV-3, 48 h, read-out: SKOV-3 Viability 48 h IC50

CN[C@@H](C)C(=O)N[C@H]1CCS[C@H]2CC(C)(C)[C@@H](C(=O)N[C@H]3c4ccccc4C[C@H]3OCC#CC#CCO[C@@H]3Cc4ccccc4[C@@H]3NC(=O)[C@H]3N4C(=O)[C@@H](NC(=O)[C@H](C)NC)CCS[C@H]4CC3(C)C)N2C1=O [Compound 18a, (2S)-1-{[(4S,7S,9aS)-74{(1S,2R)-2-[(6-{[(1S,2R)-1-({[(4S,7S,9aS)-8,8-Dimethyl-4-{[(2S)-2-(methylammonio)propanoyl]amino}-5-oxooctahydropyrrolo[2,1-b][1,3]thiazepin-7-yl]carbonyl}amino)-2,3-dihydro-1H-inden-2-yl]oxy}hexa-2,4-diyn-1-yl)oxy]-2,3-dihydro-1H-inden-1-yl}carbamoyl)-8,8-dimethyl-5-oxooctahydropyrrolo[2,1-b][1,3]thiazepinyl]amino}-N-methyl-1-oxopropan-2-ammonium dichloride]
IC50 ([1]; Homo sapiens, 72 h, read-out: AML-SH-075 IC50): 10 to 100 nM | AML-SH-075 Efficacy ([1]; patient derived AML sample AML-SH-075, 72 h, cell viability at max. concentration): I (I < 10%) | IC50 ([2]; Homo sapiens, 72 h, read-out: AML-SH-065 IC50): < 10 nM | AML-SH-065 Efficacy ([2]; patient derived AML sample AML-SH-065, 72 h, cell viability at max. concentration): I (I < 10%) | IC50 ([3]; Homo sapiens, 72 h, read-out: AML-SH-074 IC50): 100 to 1000 nM | AML-SH-074 Efficacy ([3]; patient derived AML sample AML-SH-074, 72 h, cell viability at max. concentration): I (I < 10%) | IC50 ([4]; NB-4, 72 h, read-out: NB-4 Viability 72 h IC50): < 10 nM | IC50 ([4]; NB-4, 144 h, read-out: IC50 6 d): < 10 nM | Cell viability at max. concentration ([4]; NB-4, 6 d): I (I<10%) | IC50 ([5]; Homo sapiens, PANC-1, 144 h, read-out: IC50 6 d): < 100000 nM | Cell viability at max. concentration ([5]; PANC1, 6 d): IV (IV<100%) | Cell viability at max. concentration ([6]; BT549, 6 d): I (I<10%) | IC50 ([6]; Homo sapiens, BT-549, 144 h, read-out: IC50 6 d): 10 to 100 nM | IC50 ([7]; Homo sapiens, MIA PaCa-2, 144 h, read-out: IC50 6 d): 1000 to 10000 nM | Cell viability at max. concentration ([7]; MiaPaCa2, 6 d): I (I<10%) | IC50 ([8]; Homo sapiens, SHP77, 144 h, read-out: IC50 6 d): < 100000 nM | Cell viability at max. concentration ([8]; SHP-77, 6 d): IV (IV<100%) | concentration at 1 h [9]: 3.52 µM | cytokine release [10]: did not induce | IC50 [11]: < 10 nM
